Laboratory results from US20160250213A1, “FORMULATIONS OF AZAINDOLE COMPOUNDS” (priority 2013, published 2016).
Values joined by “and” are separate entries in the source; they are usually repeats but may differ in a detail not shown here. Equal entries are not always repeated. Where two headings read alike, the source gives them in different places. Marks after values point to notes of the source that are not given here.

What was measured:
[1] = system: Influenza A/California/04/2009 (pndH1N1) virus; assay type: in vivo, BALB/c mice
[2] = system: Influenza A/Vietnam/1203/2004 (H5N1) virus; set-up: species or system BALB/c mice; conditions: mouse, in vivo
A/Aichi/2/68 (H3N2) = experiment: microbe, parasite or virus in culture; assay type: cell-based; conditions: Influenza A virus, MDCK, read-out: Cell Protection Assay EC50 ± SD
[3] = system: Influenza A/Victoria/3/75 (H3N2) virus; assay type: in vivo, BALB/c mice
influenza A = system: influenza A; set-up: species or system mice; conditions: mouse, in vivo
A/Hawaii/2/2006 (H3N2) = experiment: microbe, parasite or virus in culture; assay type: cell-based; conditions: Influenza A virus, MDCK, read-out: Cell Protection Assay EC50 ± SD
[4] = system: A/South Dakota/6/2007 (H1N1); experiment: microbe, parasite or virus in culture; assay type: cell-based; conditions: Influenza A virus, MDCK, read-out: Cell Protection Assay EC50 ± SD
B/Russia/69 = experiment: microbe, parasite or virus in culture; assay type: cell-based; conditions: Influenza B virus, MDCK, read-out: Cell Protection Assay EC50 ± SD
[5] = single doses up to 1600 mg and multiple doses up to 800 mg daily for 10 days
A/Victoria/3/75 (H3N2) = experiment: microbe, parasite or virus in culture; assay type: cell-based; conditions: Influenza A virus, MDCK, read-out: Cell Protection Assay EC50 ± SD
A/Mal/302/54 (H1N1) = experiment: microbe, parasite or virus in culture; assay type: cell-based; conditions: Influenza A virus, MDCK, read-out: Cell Protection Assay EC50 ± SD
[6] = system: influenza A/Wisconsin/67/2005 (H3N2) challenge strain virus; assay type: in vivo, humans (healthy volunteers); conditions: for Composite Clinical Symptom, AUC, median / Influenza like Symptom, AUC, median: Day 1 through Day 7
[7] = 1 mg/kg p.o. twice a day for 10 days starting 2 hours prior to virus exposure
[8] = 3 mg/kg p.o. twice a day for 10 days starting 2 hours prior to virus exposure
[9] = 10 mg/kg p.o. twice a day for 10 days starting 2 hours prior to virus exposure
[10] = 900 mg Day 1, 600 mg qd Days 2-5, N = 19
[11] = 1200 mg Day 1, 600 mg qd Days 2-5, N = 18
[12] = pooled Compound (1) groups, N = 72
[13] = 900 mg Day 1, 600 mg Days 2-5, N = 14
[14] = 1200 mg Day 1, 600 mg Days 2-5, N = 14
[15] = pooled Compound (1) dose groups, N = 52

O=C(O)[C@H]1C2CCC(CC2)C1Nc1nc(-c2c[nH]c3ncc(F)cc23)ncc1F (some centres unmarked) [Compound (1)]
Mean Lung Parameters (Day 6): Score (hemorrhage, 0 to 4) [1, 7]: 0.6
Mean Lung Parameters (Day 6): Virus Titer [1, 7]: 5.5 Log10 CCID50/g
Mean Lung Parameters (Day 6): Weight [1, 7]: 246 mg
Mean Lung Parameters (Day 6): Score (hemorrhage, 0 to 4) [1, 8]: 0.0
Mean Lung Parameters (Day 6): Virus Titer [1, 8]: 3.1 Log10 CCID50/g
Mean Lung Parameters (Day 6): Weight [1, 8]: 123 mg
Mean Lung Parameters (Day 6): Score (hemorrhage, 0 to 4) [1, 9]: 0.2
Mean Lung Parameters (Day 6): Virus Titer [1, 9]: <2.6^d*** Log10 CCID50/g
Mean Lung Parameters (Day 6): Weight [1, 9]: 132 mg
MDD ± SD (mean day of death of mice that died on or before day 21) [2]: >21
Mean Lung Parameters (Day 6): Virus Titer [2]: 3.75 ± 0.94 Log 10 CCID50/g
Survivors/Total [2]: 10/10
EC50 (A/Aichi/2/68 (H3N2)): 1.4 ± 1.1 nM
MDD ± SD (mean day of death of mice that died on or before day 21) [3, 7]: 9.8 ± 1.9
Mean Lung Parameters (Day 6): Score (hemorrhage, 0 to 4) [3, 7]: 3.2 ± 0.3^e
Mean Lung Parameters (Day 6): Virus Titer [3, 7]: 7.3 ± 0.3 Log10 CCID50/g
Mean Lung Parameters (Day 6): Weight [3, 7]: 274 ± 49 mg
Survivors/Total [3, 7]: 4/10
Mean Lung Parameters (Day 6): Score (hemorrhage, 0 to 4) [3, 8]: 3.3 ± 0.6^e
Mean Lung Parameters (Day 6): Virus Titer [3, 8]: 7.2 ± 0.2 Log10 CCID50/g
Mean Lung Parameters (Day 6): Weight [3, 8]: 260 ± 25 mg
Mean Lung Parameters (Day 6): Score (hemorrhage, 0 to 4) [3, 9]: 0.1 ± 0.2^d
Mean Lung Parameters (Day 6): Virus Titer [3, 9]: 6.1 ± 0.5 Log10 CCID50/g
Mean Lung Parameters (Day 6): Weight [3, 9]: 164 ± 11 mg
Log10 Reduction vs. Vehicle (influenza A): −1.08 Log10
Log10 Reduction vs. Vehicle (influenza A; 3 mg/kg): −1.04 Log10
Lung Viral Titer (influenza A; 3 mg/kg): 5.24 *** Log10 TCID50
Lung Viral Titer (influenza A; 10 mg/kg): 5.20*** Log10 TCID50
Lung Viral Titer (influenza A; 30 mg/kg): 3.95 Log10 TCID50 and 4.53*** Log10 TCID50
EC50 (A/Hawaii/2/2006 (H3N2)): 1.4 ± 0.91 nM
tolerability (100 mg to 1200/600 mg QD, five daily doses): well tolerated
Adverse event: Alanine aminotransferase increased (100 mg, N = 16): 3 (18.8) n(%)
Adverse event: Aspartate aminotransferase increased (100 mg, N = 16): 1 (6.3) n(%)
Adverse event: Blood phosphorus decreased (100 mg, N = 16): 3 (18.8) n(%)
Adverse event: Dermatitis contact (100 mg, N = 16): 3 (18.8) n(%)
Adverse event: Headache (100 mg, N = 16): 1 (6.3) n(%)
Adverse event: Influenza-like illness (100 mg, N = 16): 8 (50.0) n(%)
Adverse event: Malaise (100 mg, N = 16): 2 (12.5) n(%)
Adverse event: Nasal congestion (100 mg, N = 16): 0 n(%)
Adverse event: Nausea (100 mg, N = 16): 0 n(%)
Adverse event: Oropharylngeal pain (100 mg, N = 16): 2 (12.5) n(%)
Adverse event: Rhinorrhea (100 mg, N = 16): 0 n(%)
Adverse event: Spirometry abnormal (100 mg, N = 16): 2 (12.5) n(%)
Adverse event: Tension Headache (100 mg, N = 16): 0 n(%)
Adverse event: Alanine aminotransferase increased (400 mg, N = 19): 1 (5.3) n(%)
Adverse event: Aspartate aminotransferase increased (400 mg, N = 19): 1 (5.3) n(%)
Adverse event: Blood phosphorus decreased (400 mg, N = 19): 0 n(%)
Adverse event: Dermatitis contact (400 mg, N = 19): 0 n(%)
Adverse event: Headache (400 mg, N = 19): 4 (21.1) n(%)
Adverse event: Influenza-like illness (400 mg, N = 19): 10 (52.6) n(%)
Adverse event: Malaise (400 mg, N = 19): 0 n(%)
Adverse event: Nasal congestion (400 mg, N = 19): 0 n(%)
Adverse event: Nausea (400 mg, N = 19): 2 (10.5) n(%)
Adverse event: Oropharylngeal pain (400 mg, N = 19): 0 n(%)
Adverse event: Rhinorrhea (400 mg, N = 19): 2 (10.5) n(%)
Adverse event: Spirometry abnormal (400 mg, N = 19): 4 (21.1) n(%)
Adverse event: Tension Headache (400 mg, N = 19): 2 (10.5) n(%)
Adverse event: Alanine aminotransferase increased [10]: 0 n(%)
Adverse event: Aspartate aminotransferase increased [10]: 0 n(%)
Adverse event: Blood phosphorus decreased [10]: 6 (31.6) n(%)
Adverse event: Dermatitis contact [10]: 0 n(%)
Adverse event: Headache [10]: 0 n(%)
Adverse event: Influenza-like illness [10]: 9 (47.4) n(%)
Adverse event: Malaise [10]: 0 n(%)
Adverse event: Nasal congestion [10]: 0 n(%)
Adverse event: Nausea [10]: 1 (5.3) n(%)
Adverse event: Oropharylngeal pain [10]: 1 (5.3) n(%)
Adverse event: Rhinorrhea [10]: 0 n(%)
Adverse event: Spirometry abnormal [10]: 0 n(%)
Adverse event: Tension Headache [10]: 1 (5.3) n(%)
Adverse event: Alanine aminotransferase increased [11]: 6 (33.3) n(%)
Adverse event: Aspartate aminotransferase increased [11]: 2 (11.1) n(%)
Adverse event: Blood phosphorus decreased [11]: 4 (22.2) n(%)
Adverse event: Dermatitis contact [11]: 0 n(%)
Adverse event: Headache [11]: 2 (11.1) n(%)
Adverse event: Influenza-like illness [11]: 7 (38.9) n(%)
Adverse event: Malaise [11]: 0 n(%)
Adverse event: Nasal congestion [11]: 1 (5.6) n(%)
Adverse event: Nausea [11]: 0 n(%)
Adverse event: Oropharylngeal pain [11]: 0 n(%)
Adverse event: Rhinorrhea [11]: 1 (5.6) n(%)
Adverse event: Spirometry abnormal [11]: 4 (22.2) n(%)
Adverse event: Tension Headache [11]: 0 n(%)
incidence of decreased blood phosphorus level (Compound (1) groups): 18.1%
incidence of nasal congestion (Compound (1) groups): 1.4%
incidence of rhinorrhea (Compound (1) groups): 4.2%
Adverse event: Alanine aminotransferase increased [12]: 10 (13.9) n(%)
Adverse event: Aspartate aminotransferase increased [12]: 4 (5.6) n(%)
Adverse event: Blood phosphorus decreased [12]: 13 (18.1) n(%)
Adverse event: Dermatitis contact [12]: 3 (4.2) n(%)
Adverse event: Headache [12]: 7 (9.7) n(%)
Adverse event: Influenza-like illness [12]: 34 (47.2) n(%)
Adverse event: Malaise [12]: 2 (2.8) n(%)
Adverse event: Nasal congestion [12]: 1 (1.4) n(%)
Adverse event: Nausea [12]: 3 (4.2) n(%)
Adverse event: Oropharylngeal pain [12]: 3 (4.2) n(%)
Adverse event: Rhinorrhea [12]: 3 (4.2) n(%)
Adverse event: Spirometry abnormal [12]: 10 (13.9) n(%)
Adverse event: Tension Headache [12]: 3 (4.2) n(%)
EC50 [4]: 0.31 ± 0.25 nM
EC50 (B/Russia/69): > 10 nM
liver function abnormalities, serum phosphate decreases [5]: Neither liver function abnormalities nor serum phosphate decreases were observed
EC50 (A/Victoria/3/75 (H3N2)): 1.3 ± 0.63 nM
EC50 (A/Mal/302/54 (H1N1)): 0.57 ± 0.055 nM
Composite Clinical Symptom, Duration, median ([6]; 100 mg QD 5 days, N = 12): 3.21 days
Composite Clinical Symptom, Peak, mean ([6]; 100 mg QD 5 days, N = 12): 3.17 Grade
Influenza like Symptom, Duration, median ([6]; 100 mg QD 5 days, N = 12): 3.21 days
Influenza like Symptom, Peak, mean ([6]; 100 mg QD 5 days, N = 12): 2.75 Grade
Composite Clinical Symptom, AUC, median ([6]; 100 mg QD 5 days, N = 12): 1.85 Grade*Day
Influenza like Symptom, AUC, median ([6]; 100 mg QD 5 days, N = 12): 1.85 Grade*Day
Composite Clinical Symptom, Duration, median ([6]; 400 mg QD 5 days, N = 12): 3.34 days
Composite Clinical Symptom, Peak, mean ([6]; 400 mg QD 5 days, N = 12): 2.83 Grade
Influenza like Symptom, Duration, median ([6]; 400 mg QD 5 days, N = 12): 3.34 days
Influenza like Symptom, Peak, mean ([6]; 400 mg QD 5 days, N = 12): 2.42 Grade
Composite Clinical Symptom, AUC, median ([6]; 400 mg QD 5 days, N = 12): 4.70 Grade*Day
Influenza like Symptom, AUC, median ([6]; 400 mg QD 5 days, N = 12): 3.80 Grade*Day
Composite Clinical Symptom, Duration, median [6, 13]: 2.69 days
Composite Clinical Symptom, Peak, mean [6, 13]: 3.71 Grade
Influenza like Symptom, Duration, median [6, 13]: 2.69 days
Influenza like Symptom, Peak, mean [6, 13]: 3.21 Grade
Composite Clinical Symptom, AUC, median [6, 13]: 1.75 Grade*Day
Influenza like Symptom, AUC, median [6, 13]: 1.75 Grade*Day
Composite Clinical Symptom, Duration, median [6, 14]: 1.88 days
Composite Clinical Symptom, Peak, mean [6, 14]: 1.50 Grade
Influenza like Symptom, Duration, median [6, 14]: 1.88 days
Influenza like Symptom, Peak, mean [6, 14]: 1.36 Grade
Composite Clinical Symptom, AUC, median [6, 14]: 1.95 Grade*Day
Influenza like Symptom, AUC, median [6, 14]: 1.75 Grade*Day
Composite Clinical Symptom, Duration, median [6, 15]: 2.34 days
Composite Clinical Symptom, Peak, mean [6, 15]: 2.79 Grade
Influenza like Symptom, Duration, median [6, 15]: 2.34 days
Influenza like Symptom, Peak, mean [6, 15]: 2.42 Grade
Composite Clinical Symptom, AUC, median [6, 15]: 2.15 Grade*Day
Influenza like Symptom, AUC, median [6, 15]: 2.05 Grade*Day
